Data set [1] has as its system freshwater algae (Pseudokirchneriella subcapitata). In words: Algal toxicity, growth inhibition of freshwater algae over 72 hours (OECD Guideline 201). The data set is classed as cell-based. Particulars: inhibition of 50% of algal growth. The procedure:
The toxicity of the substances for the environment can be measured with regard to various standardized tests. One of the more sensitive consists of the measurement of the toxicity with regard to freshwater algae (Pseudokirchneriella subcapitata). The test is carried out according to the OECD Guideline 201. It consists in evaluating the inhibition of the growth of the algae over a period of time of 72 hours. The characteristic parameter is the EC50, which is the concentration of the substance which brings about inhibition of 50% of the algal growth during the test.

Data set [2] is described as follows: Biodegradability in seawater (OECD Guideline 306). Particulars: marine environment. The procedure:
The biodegradability tests are carried out in a marine environment according to the OECD Guideline 306.

As for `CCCCCCCCC=CCCCCCCCC1=NCCN1CCN` [Imidazoline A, N-aminoethyl-2-heptadecenylimidazoline], the “Algal toxicity (EC50 in mg/l)” value in data set [1] is 0.0047 mg/L. In data set [2], the “OECD 306 Biodegradability, % of biodegradation in 28 days” value amounted to 57%.
In the case of “N-aminoethyl-2-heptadecenylimidazoline maleate [Example 2]”, the “Algal toxicity (EC50 in mg/l)” value in data set [1] was found to be 1 mg/L. The “OECD 306 Biodegradability, % of biodegradation in 28 days” value in data set [2] came out at 66%.
